Results taken from patent US7001770B1, “Calpain inhibitors and their applications” (priority 1998, dated 2006).
Square brackets hold non-standard residues; d marks the D form. Peptide text beside a SMILES is read from it. Nle = CCCC[C@H](N)C(=O)O

What was measured:
[1] = test system: NF-kB; test: Gel shift assay; assay type: cell-based; conditions: HLF cells; 10 μM CI-1; 24 hours post treatment
Method: (§1) The lanes on the gel are labelled as follows: Lane 1=DMF solvent alone control; Lane 2=10 μM CI-1; Lane 3=a null control vector based on ACN53 without the p53 transgene (ZZCB); Lane 4=ZZCB+10 μM CI-1; Lane 5=ACN53 alone and Lane 6=ACN53+ 10 μM CI-1. Panel A illustrates the induction of NF-kb upon administration of calpain inhibitor 1. Panel B illustrates the induction of AP-1 upon administration of calpain inhibitor 1.
(§2) In contrast to these studies, the present invention further provides a method of enhancing transcription of a therapeutic transgene from the CMV promoter. The term “enhancing transcription” refers to an increase in the transcriptional activity of those sequences operably linked to the CMV promter. The term CMV promoter means the immediate early promoter of the cytomegalovirus. The promoter may be isolated as a restriction endonuclease fragment from the commercially available vector pCMVβ (GenBank Accession Number U02451). […] The CMV promoter is a strong constituitive promoter widely utilized in the expression of exogenous transgenes from viral vectors. Recent reports indicated an upregulation of the CMV promoter driven genes in response to recombinant adenoviral infection. […] In response to calpain inhibitor 1 treatment, a 42% increase in NF-kB activation was detected, and a 50% increase in AP1 activation was detected as quantified by densitometer readings. […]

[2] = test system: AP-1; test: Gel shift assay; assay type: cell-based; conditions: HLF cells; 10 μM CI-1; 24 hours post treatment
Method: as §1, §2

[3] = test system: p53 levels in cell lines with endogenous wildtype and mutated p53 status; test: Western blot of p53 levels; assay type: cell-based; conditions: in response to calpain inhibitor 1 (FIG. 5)
[4] = test system: SK-Hep1 cells; test: G0/G1 cell cycle arrest by BrdU labeling, flow cytometry; assay type: cell-based; conditions: 5 μM CI-1 for 17 hours, 2 hour pulse; DMF control 34%
Method: (§3) In order to determine any increases in p53 function in response to calpain inhibitor 1, the quantity of cells undergoing G0/G1 cell cycle arrest in response to CI-1 administration, was assayed by bromodeoxyuridine labeling of cells. Each of the cell lines described in Example 2 above were exposed to a concentration of 0 or 5 μM CI-1 (in DMF) as described in Example 3 above. Cell lines treated with DMF alone or 5 μM final concentration of calpain inhibitor 1 for 17 hours were pulse labeled with a final concentration of 10 μM bromodeoxyuridine (Boehringer Mannheim) for two hours. Cells were harvested for bivariate BrdU/DNA flow cytometric analysis by fixation in 70% ethanol, followed digestion with 0.08% pepsin for 30 minutes at 37 degrees. Cells were centrifuged at 1500 RPM, and 2N HCL was added. Cells were incubated at 37 degrees for 20 minutes, followed by addition of 1M sodium borate. Cells were washed in IFA/tween 20 (0.01 M HEPES, 0.005% sodium azide, 0.5% tween 20, 5% FBS, […]), and anti-BrdU antibody, diluted 1:10 in IFA without tween 20, was added for 30 minutes. Cells were washed in IFA/tween 20, and incubated in IFA/tween 20/RNase for 15 minutes at 37 degrees.
(§4) Cells that had incorporated BrdU were stained using a FITC conjugated monoclonal antibody to BrdU (commercially available from Becton-Dickinson) and detected by FACS analysis on a FACScan FACS machine (commercially available from Becton Dickinson).

[5] = test system: DLD1 cells; test: as above; assay type: cell-based; conditions: 5 μM CI-1 for 17 hours, 2 hour pulse; 35% without calpain treatment
Method: as §3, §4

[6] = test system: HLF cells; test: as above; assay type: cell-based; conditions: 5 μM CI-1 for 17 hours, 2 hour pulse; DMF control 42%
Method: as §3, §4

[7] = test system: RKO cells; test: as above; assay type: cell-based; conditions: 5 μM CI-1 for 17 hours, 2 hour pulse; DMF control 47%
Method: as §3, §4

[8] = test system: beta-galactosidase transgene; test: In vivo transgene RNA in liver by RT-PCR; parameters: species or system C57BL/6 mice; conditions: CI-1 60 mg/kg ip, three administrations; 9×10^9 particle/ml rAd beta-galactosidase tail vein; seen in one third of the mice
Method: […] C57BL/6 mice were treated with 60 mg/kg injected intraperitoneally on day minus one. Three control mice were injected with CI-1 solvent only (PBS/0.02% DMSO). On day zero, all mice were tail vein injected with 9×10^9 particle/ml with a recombinant adenovirus encoding the beta-galactosidase transgene. CI-1 or solvent was administed one additional time on day one for three total intraperitoneal administrations of CI-1. Mice were sacrificed three days and nine days later (four-and ten days post-infection respectively), and livers were harvested for quantitative PCR and RT-PCR to detect viral DNA and viral transcript (b-galactosidase) respectively. One third of the miceexpressed a high level of transgene RNA in response to calpain inhibitor 1 treatment, as compared with virus alone.

## CCCC[C@@H](C=O)NC(=O)[C@H](CC(C)C)NC(=O)[C@H](CC(C)C)NC(C)=O [CI-1, N-acetyl-leu-leu-norleucinal] (Ac-Leu-Leu-[Nle]-aldehyde)
[1]
  increase in NF-kB activation (densitometer): 42%
[2]
  increase in AP1 activation (densitometer): 50%
[3]
  increase in p53 levels: 2–5 ×
[4]
  cells incorporating BrdU label: 8%
[5]
  cells incorporating BrdU: about 25%
[6]
  cells incorporating BrdU label: 35%
[7]
  cells incorporating BrdU label: 16%
[8]
  level of transgene RNA in liver compared with virus alone: Approximately a six fold higher level
